In US20100267561A1, “HERBICIDAL PYRIDAZINONE DERIVATIVES” (priority 2007, published 2010):

Legend:
Assay type in all cases: in vivo
[1] = tested on: wheat (Triticum aestivum); test: Test A pre-/postemergence plant response
Procedure, shortened: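 Soil: loam blended with sand. Formulation: non-phytotoxic solvent mixture plus surfactant, applied as preemergence directed soil spray and as postemergence spray. Scoring: visual, 0 no effect to 100 complete control, roughly 10 days post-treatment in greenhouse.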

[2] = tested on: woolly cupgrass (Eriochloa villosa); test: Test B pre-/postemergence plant response; settings: for Cupgrass, Woolly plant response rating: 8 g ai/ha
Procedure, shortened: (§1)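 Visual scoring from 0 (no effect) to 100 (complete control) against untreated controls was done 13 to 15 days after greenhouse treatment. Chemicals were formulated in a surfactant-containing non-phytotoxic solvent and applied to soil preemergence or to 1- to 4-leaf (2-18 cm) plants postemergence.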

[3] = tested on: goosegrass (Eleusine indica); test: Test B pre-/postemergence plant response; settings: for Goosegrass plant response rating: 8 g ai/ha
Procedure, shortened: as §1

[4] = tested on: Italian ryegrass (Lolium multiflorum); test: Test B pre-/postemergence plant response; settings: for Ryegrass, Italian plant response rating: 8 g ai/ha
Procedure, shortened: as §1

[5] = tested on: yellow nutsedge (Cyperus esculentus); test: Test B pre-/postemergence plant response; settings: for Nutsedge, Yellow plant response rating: 8 g ai/ha
Procedure, shortened: as §1

[6] = tested on: Russian thistle (Salsola iberica); test: Test B pre-/postemergence plant response; settings: Preemergence; for Russian Thistle plant response rating: 8 g ai/ha
Procedure, shortened: as §1

soybean (Glycine max) = test: Test B pre-/postemergence plant response; settings: for Soybean plant response rating: 8 g ai/ha
Procedure, shortened: as §1

[7] = tested on: eastern black (E.B.) nightshade (Solanum ptycanthum); test: Test B pre-/postemergence plant response; settings: Preemergence; for Nightshade, E. B. plant response rating: 8 g ai/ha
Procedure, shortened: as §1

kochia (Kochia scoparia) = test: Test B pre-/postemergence plant response; settings: for Kochia plant response rating: 8 g ai/ha
Procedure, shortened: as §1

[8] = tested on: common ragweed (Ambrosia elation); test: Test B pre-/postemergence plant response; settings: for Ragweed plant response rating: 8 g ai/ha
Procedure, shortened: as §1

[9] = tested on: cocklebur (Xanthium strumarium); test: Test B pre-/postemergence plant response; settings: for Cocklebur plant response rating: 8 g ai/ha
Procedure, shortened: as §1

[10] = tested on: pigweed (Amaranthus retroflexus); test: Test B pre-/postemergence plant response; settings: for Pigweed plant response rating: 8 g ai/ha
Procedure, shortened: as §1

[11] = Postemergence, 125 g ai/ha, 0 to 100 scale, 0 no effect, 100 complete control
[12] = Preemergence, 125 g ai/ha, 0 to 100 scale (0 no effect, 100 complete control)
[13] = Postemergence, 16 g ai/ha, scale 0 to 100
[14] = Postemergence, 31 g ai/ha, scale 0 to 100, 0 no effect, 100 complete control
[15] = Postemergence, 62 g ai/ha, scale 0 to 100, 0 no effect, 100 complete control
[16] = Preemergence, 16 g ai/ha, scale 0 to 100 (0 no effect, 100 complete control)
[17] = Preemergence, 31 g ai/ha, 0 to 100 scale, 0 no effect, 100 complete control
[18] = Preemergence, 62 g ai/ha, scale 0 to 100
[19] = 16 g ai/ha, scale 0 to 100 (0 no effect, 100 complete control)
[20] = 31 g ai/ha, 0 to 100 scale, 0 no effect, 100 complete control

COC(=O)Oc1cnn(C)c(=O)c1-n1nc(-c2ccc(Cl)cc2)cc1C [Compound 33]
Plant response rating, Wheat ([1]; Postemergence, 31 g ai/ha, 0 to 100 scale (0 no effect, 100 complete control)): 20
Plant response rating, Wheat [1, 11]: 70
Plant response rating, Wheat ([1]; Preemergence, 31 g ai/ha, 0 to 100 scale, 0 is no effect, 100 is complete control): 50
Plant response rating, Wheat [1, 12]: 80
Cupgrass, Woolly plant response rating ([2]; postemergence, 0-100 scale): 98
Plant response rating, Cupgrass, Woolly [2, 13]: 100
Plant response rating, Cupgrass, Woolly [2, 14]: 100
Plant response rating, Cupgrass, Woolly [2, 15]: 100
Plant response rating, Cupgrass, Woolly [2, 16]: 90
Plant response rating, Cupgrass, Woolly [2, 17]: 100
Plant response rating, Cupgrass, Woolly [2, 18]: 100
Cupgrass, Woolly plant response rating ([2]; Preemergence, scale 0 to 100): 80
Goosegrass plant response rating ([3]; postemergence, 0-100 scale): 50
Plant response rating, Goosegrass [3, 13]: 70
Plant response rating, Goosegrass [3, 14]: 90
Plant response rating, Goosegrass [3, 15]: 100
Plant response rating, Goosegrass [3, 16]: 98
Plant response rating, Goosegrass [3, 17]: 98
Plant response rating, Goosegrass [3, 18]: 98
Goosegrass plant response rating ([3]; Preemergence, scale 0 to 100): 85
Ryegrass, Italian plant response rating ([4]; postemergence, 0-100 scale): 75
Plant response rating, Ryegrass, Italian [4, 13]: 80
Plant response rating, Ryegrass, Italian [4, 14]: 100
Plant response rating, Ryegrass, Italian [4, 15]: 100
Plant response rating, Ryegrass, Italian [4, 16]: 95
Plant response rating, Ryegrass, Italian [4, 17]: 95
Plant response rating, Ryegrass, Italian [4, 18]: 98
Ryegrass, Italian plant response rating ([4]; Preemergence, scale 0 to 100): 85
Nutsedge, Yellow plant response rating ([5]; postemergence, 0-100 scale): 0
Plant response rating, Nutsedge, Yellow [5, 13]: 0
Plant response rating, Nutsedge, Yellow [5, 14]: 0
Plant response rating, Nutsedge, Yellow [5, 15]: 0
Plant response rating, Nutsedge, Yellow [5, 16]: 0
Plant response rating, Nutsedge, Yellow [5, 17]: 0
Plant response rating, Nutsedge, Yellow [5, 18]: 0
Nutsedge, Yellow plant response rating ([5]; Preemergence, scale 0 to 100): 0
Plant response rating, Russian Thistle [6, 19]: 0
Plant response rating, Russian Thistle [6, 20]: 0
Plant response rating, Russian Thistle ([6]; 62 g ai/ha, scale 0 to 100): 80
Russian Thistle plant response rating ([6]; scale 0 to 100): 0
Soybean plant response rating (soybean (Glycine max); postemergence, 0-100 scale): 0
Plant response rating, Soybean (soybean (Glycine max); [13]): 0
Plant response rating, Soybean (soybean (Glycine max); [15]): 0
Plant response rating, Soybean (soybean (Glycine max); [16]): 0
Plant response rating, Soybean (soybean (Glycine max); [17]): 0
Plant response rating, Soybean (soybean (Glycine max); [18]): 0
Soybean plant response rating (soybean (Glycine max); Preemergence, scale 0 to 100): 0
Plant response rating, Nightshade, E. B. [7, 19]: 0
Plant response rating, Nightshade, E. B. [7, 20]: 0
Plant response rating, Nightshade, E. B. ([7]; 62 g ai/ha, scale 0 to 100): 0
Nightshade, E. B. plant response rating ([7]; scale 0 to 100): 0
Kochia plant response rating (kochia (Kochia scoparia); postemergence, 0-100 scale): 0
Plant response rating, Kochia (kochia (Kochia scoparia); [13]): 0
Plant response rating, Kochia (kochia (Kochia scoparia); [14]): 0
Plant response rating, Kochia (kochia (Kochia scoparia); [15]): 0
Plant response rating, Kochia (kochia (Kochia scoparia); [17]): 0
Plant response rating, Kochia (kochia (Kochia scoparia); [18]): 0
Kochia plant response rating (kochia (Kochia scoparia); Preemergence, scale 0 to 100): 0
Ragweed plant response rating ([8]; postemergence, 0-100 scale): 0
Plant response rating, Ragweed [8, 13]: 0
Plant response rating, Ragweed [8, 14]: 0
Plant response rating, Ragweed [8, 15]: 0
Plant response rating, Ragweed [8, 16]: 0
Plant response rating, Ragweed [8, 17]: 0
Plant response rating, Ragweed [8, 18]: 0
Ragweed plant response rating ([8]; Preemergence, scale 0 to 100): 0
Cocklebur plant response rating ([9]; postemergence, 0-100 scale): 0
Plant response rating, Cocklebur [9, 13]: 0
Plant response rating, Cocklebur [9, 14]: 0
Plant response rating, Cocklebur [9, 15]: 0
Plant response rating, Cocklebur [9, 16]: 0
Plant response rating, Cocklebur [9, 17]: 0
Cocklebur plant response rating ([9]; Preemergence, scale 0 to 100): 0
Pigweed plant response rating ([10]; postemergence, 0-100 scale): 0
Plant response rating, Pigweed [10, 13]: 0
Plant response rating, Pigweed [10, 14]: 0
Plant response rating, Pigweed [10, 15]: 0
Plant response rating, Pigweed [10, 16]: 0
Plant response rating, Pigweed [10, 17]: 0
Plant response rating, Pigweed [10, 18]: 0
Pigweed plant response rating ([10]; Preemergence, scale 0 to 100): 0

Cn1ncc(O)c(-c2nn(-c3ccc(Cl)cc3)cc2Br)c1=O [Compound 31]
Plant response rating, Wheat [1, 11]: 40
Plant response rating, Wheat ([1]; Postemergence, 500 g ai/ha, 0 to 100 scale, 0 no effect, 100 complete control): 60
Plant response rating, Wheat [1, 12]: 60
Plant response rating, Wheat ([1]; Preemergence, 500 g ai/ha, 0 to 100 scale (0 no effect, 100 complete control)): 90
Plant response rating, Cupgrass, Woolly [2, 16]: 98
Plant response rating, Cupgrass, Woolly [2, 17]: 100
Plant response rating, Cupgrass, Woolly [2, 18]: 100
Cupgrass, Woolly plant response rating ([2]; Preemergence, scale 0 to 100): 70
Plant response rating, Goosegrass [3, 16]: 90
Plant response rating, Goosegrass [3, 17]: 100
Plant response rating, Goosegrass [3, 18]: 100
Goosegrass plant response rating ([3]; Preemergence, scale 0 to 100): 85
Plant response rating, Ryegrass, Italian [4, 16]: 90
Plant response rating, Ryegrass, Italian [4, 17]: 90
Plant response rating, Ryegrass, Italian [4, 18]: 100
Ryegrass, Italian plant response rating ([4]; Preemergence, scale 0 to 100): 50
Plant response rating, Nutsedge, Yellow [5, 16]: 0
Plant response rating, Nutsedge, Yellow [5, 17]: 0
Plant response rating, Nutsedge, Yellow [5, 18]: 0
Nutsedge, Yellow plant response rating ([5]; Preemergence, scale 0 to 100): 0
Plant response rating, Russian Thistle [6, 19]: 0
Plant response rating, Russian Thistle [6, 20]: 0
Plant response rating, Russian Thistle ([6]; 62 g ai/ha, scale 0 to 100): 0
Russian Thistle plant response rating ([6]; scale 0 to 100): 0
Plant response rating, Soybean (soybean (Glycine max); [16]): 0
Plant response rating, Soybean (soybean (Glycine max); [17]): 0
Plant response rating, Soybean (soybean (Glycine max); [18]): 60
Soybean plant response rating (soybean (Glycine max); Preemergence, scale 0 to 100): 0
Plant response rating, Nightshade, E. B. [7, 19]: 0
Plant response rating, Nightshade, E. B. [7, 20]: 0
Plant response rating, Nightshade, E. B. ([7]; 62 g ai/ha, scale 0 to 100): 0
Nightshade, E. B. plant response rating ([7]; scale 0 to 100): 0
Plant response rating, Kochia (kochia (Kochia scoparia); [16]): 0
Plant response rating, Kochia (kochia (Kochia scoparia); [17]): 0
Plant response rating, Kochia (kochia (Kochia scoparia); [18]): 0
Kochia plant response rating (kochia (Kochia scoparia); Preemergence, scale 0 to 100): 0
Plant response rating, Ragweed [8, 16]: 0
Plant response rating, Ragweed [8, 17]: 0
Plant response rating, Ragweed [8, 18]: 0
Ragweed plant response rating ([8]; Preemergence, scale 0 to 100): 0
Plant response rating, Cocklebur [9, 16]: 0
Plant response rating, Cocklebur [9, 17]: 0
Plant response rating, Cocklebur [9, 18]: 0
Cocklebur plant response rating ([9]; Preemergence, scale 0 to 100): 0
Plant response rating, Pigweed [10, 16]: 0
Plant response rating, Pigweed [10, 17]: 0
Plant response rating, Pigweed [10, 18]: 0
Pigweed plant response rating ([10]; Preemergence, scale 0 to 100): 0
